Experimental data from patent US20240245633A1, “ROR Gamma Agonists as Enhancers of Protective Immunity” (University of Florida Research Foundation, Incorporated, priority 2015, published 2024).
Marks after values point to notes of the source that are not given here.

What was measured:
full length RORγt [1] = molecular target: T1, full length RORγt (Homo sapiens, UniProt P51449); assay: Full-length RORγt co-transfection with 5×RORE-Luc reporter in HEK293T cells; type: cell-based; conditions: 2 μM ursolic acid
T1 construct: full length RORγt was co-transfected along with a luciferase reporter; expressed in transfected cells; host or cells: HEK293T
T1 sequence (P51449 1-497 isoform P51449-2): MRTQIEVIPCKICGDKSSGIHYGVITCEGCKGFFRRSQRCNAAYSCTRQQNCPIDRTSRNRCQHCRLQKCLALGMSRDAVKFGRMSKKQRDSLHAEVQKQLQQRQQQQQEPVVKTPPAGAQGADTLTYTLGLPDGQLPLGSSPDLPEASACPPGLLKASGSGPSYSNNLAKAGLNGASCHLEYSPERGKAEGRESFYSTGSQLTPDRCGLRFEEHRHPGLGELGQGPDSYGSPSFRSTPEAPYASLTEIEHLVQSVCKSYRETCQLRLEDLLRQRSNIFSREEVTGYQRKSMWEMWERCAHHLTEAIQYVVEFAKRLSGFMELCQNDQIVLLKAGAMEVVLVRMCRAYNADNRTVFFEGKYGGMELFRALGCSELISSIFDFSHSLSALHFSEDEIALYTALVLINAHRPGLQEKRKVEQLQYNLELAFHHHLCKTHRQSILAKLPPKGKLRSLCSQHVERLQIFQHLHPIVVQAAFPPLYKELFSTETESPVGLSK
Excerpt: (§1) In order to determine if these compounds could modulate RORγt activity in the context of the full-length receptor, we used a co-transfection system in HEK293T cells in which full length RORγt was co-transfected along with a luciferase reporter under the control of either a basic promoter containing five copies of an ROR response element (5×RORE) or a minimal IL17 promoter.

full length RORγt [2] = molecular target: T1, full length RORγt; assay: Full-length RORγt co-transfection with IL17-Luc reporter in HEK293T cells; type: cell-based; conditions: 2 μM ursolic acid
Excerpt: as §1

[3] = molecular target: T2, RORγt LBD pretreated with ursolic acid (Homo sapiens, UniProt P51449); assay: Differential HDX-MS of RORγt pretreated with ursolic acid ± compound; type: binding
T2 construct: 5 μL of a 10 μM RORγt LBD solution (Apo or in complex with 10-excess compound)
T2 sequence (P51449 269-508 limits assumed): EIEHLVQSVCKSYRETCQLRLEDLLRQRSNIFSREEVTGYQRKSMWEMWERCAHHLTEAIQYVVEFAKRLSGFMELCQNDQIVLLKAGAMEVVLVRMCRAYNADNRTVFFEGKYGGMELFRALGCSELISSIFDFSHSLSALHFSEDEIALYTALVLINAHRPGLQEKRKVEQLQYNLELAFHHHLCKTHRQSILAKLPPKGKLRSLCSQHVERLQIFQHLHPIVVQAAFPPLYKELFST
Excerpt: While the mechanism of action of RORγt agonists on regulation of the immune checkpoint receptor PD-1 is unclear, a correlation between RORγt and PD-1 expression has been observed in PD-1 knockout mice Z Regardless, to gain insights into the structural mechanism for agonist activity we examined the impact of putative agonist ligands on the conformational dynamics of RORγt. To achieve this, we utilized differential hydrogen/deuterium exchange (HDX) mass spectrometry.
HDX-MS. Solution-phase amide HDX was performed with a fully automated system as described previously with minor modifications^30,31. For differential HDX experiments, 5 μL of a 10 μM RORγt LBD solution (Apo or in complex with 10-excess compound) was diluted to 25 μL with D20-containing HDX buffer, and incubated at 4° C. for; 10 s, 30s, 60s, 900s, and 3,600s, Following on-exchange, unwanted forward or back exchange is minimized and the protein is denatured by dilution to 50 μL with 0.1% TFA in 3M urea (held at 4° C., pH 2.5). Samples are then passed across an immobilized pepsin column (prepared in house) at 50 μL min−1 (0.1% TFA, 15° C.) and the resulting peptides are trapped onto a Ce trap cartridge (Thermo Fisher, Hypersil Gold). Peptides were then gradient eluted (4% CH3CN to 40% CH3CN, 0,3% formic acid over 5 minutes, 4° C.) across a 1 mm×50 mm Cia HPLC column (Hypersil Gold, Thermo Fisher) and electrosprayed directly into a high resolution orbitrap mass spectrometer (Exactive, Thermo Fisher). Percent deuterium exchange values for peptide isotopic envelopes at each time point were calculated and processed using HDX Workbench^32 and overlaid onto RORγt crystal structures using pyMOL (DeLano Scientific). HDX data is presented as an average of three individual replicates across […] time points (10s, 60s, 300s, 900s, and 3600s).

Gal4-RORγ = molecular target: T3, Gal4-RORγ (Homo sapiens, UniProt P51449); assay: cell-based; conditions: HEK-293T, read-out: fold induction of reporter gene expression
T3 sequence (P51449 269-508 limits assumed): T2 sequence (P51449 269-508 limits assumed)

CC(C)=CCC[C@@H](C)[C@H]1CC[C@H]2[C@@H]3CC=C4C[C@@H](O)CC[C@]4(C)[C@H]3CC[C@]12C [desmosterol]
reporter gene expression, 5×RORE promoter (full length RORγt [1]): minimal induction of the reporter gene
reporter gene expression, IL17 promoter (full length RORγt [2]): minimal induction of the reporter gene
protection to solvent exchange in H12 ([3]; RORγt exposed to ursolic acid, then compound): not observed
Differential HDX kinetics, peptide TEIEHLVQ ([3]; UA pretreated, 268-275, charge 2, H1): −1(4)*
Differential HDX kinetics, peptide TEIEHLVQSVC ([3]; UA pretreated, 268-278, charge 2, H1): −2(4)*
Differential HDX kinetics, peptide TEIEHLVQSVCKS ([3]; UA pretreated, 268-280, charge 3, H1): 2(2)*
Differential HDX kinetics, peptide TEIEHLVQSVCKSYRETCQ ([3]; UA pretreated, 268-286, charge 3, H1): −1(3)*
Differential HDX kinetics, peptide TEIEHLVQSVCKSYRETCQ ([3]; UA pretreated, 268-286, charge 4, H1): 0(3)*
Differential HDX kinetics, peptide RLEDL ([3]; UA pretreated, 288-292, charge 1, H2): 10(2)*
Differential HDX kinetics, peptide RLEDLL ([3]; UA pretreated, 288-293, charge 1, H2): 10(2)*
Differential HDX kinetics, peptide EVTGYQRKSMWEM ([3]; UA pretreated, 304-316, charge 2, H3/H4): −6(3)*
Differential HDX kinetics, peptide WERCAHHLTEAIQ ([3]; UA pretreated, 317-329, charge 3, H4): −1(1)*
Differential HDX kinetics, peptide WERCAHHTEAIQY ([3]; UA pretreated, 317-330, charge 3, H4): 0(1)*
Differential HDX kinetics, peptide WEGAKRLSGF ([3]; UA pretreated, 331-341, charge 2, H4/H5): −1(2)*
Differential HDX kinetics, peptide FAKRLSGF ([3]; UA pretreated, 334-341, charge 2, H4/H5): 0(2)*
Differential HDX kinetics, peptide CQNDQM ([3]; UA pretreated, 345-352, charge 1, H5/H6): 0(1)*
Differential HDX kinetics, peptide CRAYNADNRTVF ([3]; UA pretreated, 368-377, charge 2, B1): 0(2)*
Differential HDX kinetics, peptide YNADNRTVF ([3]; UA pretreated, 369-377, charge 2, B1): −1(3)*
Differential HDX kinetics, peptide FEGKYGGMEL ([3]; UA pretreated, 378-387, charge 2, B2/H7): −1(3)*
Differential HDX kinetics, peptide FRALGCSEL ([3]; UA pretreated, 388-395, charge 2, H7/H8): −1(2)*
Differential HDX kinetics, peptide LISSIFDFSHSLSAL ([3]; UA pretreated, 396-410, charge 2, H8): 0(2)*
Differential HDX kinetics, peptide ISSIFD ([3]; UA pretreated, 397-407, charge 1, H8): −3(2)*
Differential HDX kinetics, peptide ISSIFDFSHSLSAL ([3]; UA pretreated, 397-410, charge 2, H8): 0(2)*
Differential HDX kinetics, peptide IFDFSHSLSAL ([3]; UA pretreated, 400-410, charge 2, H8): 4(3)*
Differential HDX kinetics, peptide DFSHSKSAL ([3]; UA pretreated, 402-410, charge 2, H8): 3(2)*
Differential HDX kinetics, peptide FSHSLSAL ([3]; UA pretreated, 403-410, charge 2, H8): 0(3)*
Differential HDX kinetics, peptide AXLPPXGKLRSLCSQ ([3]; UA pretreated, 454-478, charge 3, H11): −1(4)*
Differential HDX kinetics, peptide HVERLQIFQHLHPIWQ ([3]; UA pretreated, 479-495, charge 2, H11): −6(3)*
Differential HDX kinetics, peptide AAFPPLYKEL ([3]; UA pretreated, 496-505, charge 2, H12): −4(2)*
Differential HDX kinetics, peptide AAFPPLYKELF ([3]; UA pretreated, 496-506, charge 2, H12): −3(2)*
Differential HDX kinetics, peptide HFSEDEIAL ([3]; UA pretreated, charge 2, H9): −1(2)*
Differential HDX kinetics, peptide QIFQHLHPIWQ ([3]; UA pretreated, charge 2, H11): −3(3)*
Differential HDX kinetics, peptide TEIEHLVQSVCKSYRETCQL ([3]; UA pretreated, charge 3, H1): −3(4)*
Differential HDX kinetics, peptide VRMCRAYNADNRTVF ([3]; UA pretreated, charge 3, H6/B1): −1(1)*
fold induction at 30 µM (Gal4-RORγ): ≥ 2
